The results in this text go back to patent US7732451B2, “Naphthalene-containing melanocortin receptor-specific small molecule” (Palatin Technologies, Inc., priority 2002, dated 2010).

Where two headings read alike, the source gives them in different places. Bounds are passed on as bounds.

Assay [1] concerns the target T1, MC4-R (HEK-293 cells expressing MC4-R) (Homo sapiens, UniProt P32245).
T1 construct: expressed in transfected cells; host or cells: HEK-293
The assay can be described thus: cAMP assay for agonist/antagonist status. It is filed as cell-based. The settings on record: antagonism = inhibition of α-MSH-induced cAMP. How it is done:
(§1) Functional evaluation of compounds at melanocortin receptors was performed by measuring the accumulation of intracellular cAMP in HEK-293 cells expressing MC3-R, MC4-R or MC5-R, and in B-16 mouse melanoma cells (containing MC1-R). Cells, suspended in Earle's Balanced Salt Solution containing 10 mM HEPES, pH 7.5, 5 mM MgCl2, 1 mM glutamine, 0.1% albumin and 0.6 mM 3-isobutyl-1-methyl-xanthine, a phosphodiesterase inhibitor, were plated in 96 well plates at a density of 0.5×10^5 cells per well. Cells were incubated with the test compounds in the presence or absence of α-MSH for 1 hour at 37° C. cAMP levels were measured by EIA (Amersham) in the cell lysates. Data analysis and EC50 values were determined using nonlinear regression analysis with Prism Graph-Pad software.
(§2) The agonist/antagonist status with respect to MC4-R of certain compounds of the invention was determined. Antagonistic activity was determined by measuring the inhibition of α-MSH-induced cAMP levels following exposure to the compounds as in Example 2.

Assay [2] deals with T2, hMC4-R (Homo sapiens, UniProt P32245).
T2 construct: expressed in transfected cells
The assay can be described thus: competitive inhibition binding assay, 125I-NDP-α-MSH, membranes. The settings on record: for inhibition at 1 µM: 1 μM compound, average of triplicates, read-out: Inhibition at 1 μM MC4-R; for Ki: read-out: Ki (nM) MC4-R. On the procedure: (§3) A competitive inhibition binding assay was conducted using membranes prepared from hMC3-R, hMC4-R, hMC5-R, and B-16 mouse melanoma cells (containing MC1-R) using 0.4 nM ^125I-NDP-α-MSH (New England Nuclear, Boston, Mass., USA) in 50 mM HEPES buffer containing 1 mM MgCl2, 2 mM CaCl2, and 5 mM KCl, at pH 7.2. The assay tube also contained a chosen concentration of the test compound of this invention, for determining its efficacy in inhibiting the binding of ^125I-NDP-α-MSH to its receptor.
(§4) Incubation was for 90 minutes at room temperature, after which the assay mixture was filtered and the membranes washed three times with ice cold buffer. The filter was dried and counted in a gamma counter for remaining radioactivity bound to the membranes. 100% specific binding was defined as the difference in radioactivity (cpm) bound to cell membranes in the absence and presence of 1 μM α-MSH. […] Each assay was conducted in triplicate and the actual mean values are described. The Ki (nM) of certain compounds of the invention were determined.

For assay [3], the target named is T3, hMC5-R (Homo sapiens, UniProt P33032).
T3 construct: expressed in transfected cells
The assay is described as above. To be noted: for inhibition at 1 µM: 1 μM compound, average of triplicates, read-out: Inhibition at 1 μM MC5-R; for Ki: read-out: Ki (nM) MC5-R. How it is done:
as §3, §4

Assay [4] has as its target T4, MC1-R (B-16 mouse melanoma cells) (Mus musculus, UniProt Q01727).
T4 construct: B-16 mouse melanoma cells (containing MC1-R); endogenous in cells; host or cells: B-16 mouse melanoma cells
Described as above. To be noted: for inhibition at 1 µM: 1 μM compound, average of triplicates, results less than 0% reported as 0%. On the procedure:
as §3, §4

Assay [5] concerns the target T5, hMC3-R (Homo sapiens, UniProt P41968).
T5 construct: expressed in transfected cells
The assay is described as above. To be noted: for inhibition at 1 µM: 1 μM compound, average of triplicates, read-out: Inhibition at 1 μM MC3-R. How it is done:
as §3, §4

The nature of assay [6]: ICV feeding studies, change in food intake and body weight. Type of assay: in vivo, rat. The settings on record: 1 nmol, male Sprague-Dawley rats; for change in weight: 24 hour. On the procedure: Change in food intake and body weight was evaluated for selected compounds. Male Sprague-Dawley rats weighing ˜300 g at the beginning of the experiment were kept on a 12 hour on/off light cycle. Lights out was adjusted to 12:00 p.m. to allow for dosing just prior to the start of their dark period. Rats (8-12/group) were fed powdered chow and water ad libitum. For 1 week before treatment, 24-hour food intake and body weight change was recorded to assess a baseline for the group during vehicle treatment. The rats were dosed ICV with vehicle or selected compounds (1-3 nmol). The changes in body weight and food intake for the 24 hour period after dosing were determined. The changes in body weight and food intake for the 48 hour period, and in same cases for 72 hours as well, after dosing were also measured to determined reversal of changes in body weight and food intake effect back to baseline.

Assay [7] can be described thus: penile erection (PE) studies in male rats. Type of assay: in vivo, rat. The settings on record: IV. How it is done:
The ability of compounds to induce penile erection (PE) in male rats was evaluated with selected compounds. Male Sprague-Dawley rats weighing 200-250 g were kept on a 12 hour on/off light cycle with food and water ad libitum. All behavioral studies were performed between 10 a.m. and 5 p.m. Groups of 4-8 rats were treated with compounds at a variety of doses via intravenous (IV) or intracerebroventricular (ICV) routes. Immediately after treatment, rats were placed into individual polystyrene cages (27 cm long, 16 cm wide, and 25 cm high) for behavioral observation. The iv and icv treated rats were observed respectively for 30 minutes and 120 min and the number of yawns, grooming bouts and PEs were recorded in 10-minute bins.

Assay [8] has as its target T6, MC5-R (HEK-293 cells expressing MC5-R) (Homo sapiens, UniProt P33032).
T6 construct: expressed in transfected cells; host or cells: HEK-293
Description: cAMP assay for agonist/antagonist status. Type of assay: cell-based. To be noted: antagonism = inhibition of α-MSH-induced cAMP. How it is done:
as §1, §2
(cAMP levels reflect the balance of adenylyl cyclase and phosphodiesterase activity.)

Assay [9] addresses T4, MC1-R (B-16 mouse melanoma cells). Description: cAMP assay for agonist/antagonist status. Type of assay: cell-based. The settings on record: antagonism = inhibition of α-MSH-induced cAMP. How it is done: as §1, §2
Setting [10] is: 1 μg/Kg, 30 minutes observation, stated below baseline.

T6 sequence (P33032 whole entry): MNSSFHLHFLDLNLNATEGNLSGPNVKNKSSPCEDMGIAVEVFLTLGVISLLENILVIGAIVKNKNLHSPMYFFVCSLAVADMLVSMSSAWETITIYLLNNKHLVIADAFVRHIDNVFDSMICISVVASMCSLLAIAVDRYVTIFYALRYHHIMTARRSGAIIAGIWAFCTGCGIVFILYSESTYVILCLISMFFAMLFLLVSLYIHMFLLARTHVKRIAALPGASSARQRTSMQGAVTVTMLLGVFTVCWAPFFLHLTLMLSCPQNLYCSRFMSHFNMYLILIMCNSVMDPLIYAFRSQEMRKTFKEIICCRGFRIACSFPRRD
T3 sequence (P33032 whole entry): as above
T5 sequence (P41968 whole entry): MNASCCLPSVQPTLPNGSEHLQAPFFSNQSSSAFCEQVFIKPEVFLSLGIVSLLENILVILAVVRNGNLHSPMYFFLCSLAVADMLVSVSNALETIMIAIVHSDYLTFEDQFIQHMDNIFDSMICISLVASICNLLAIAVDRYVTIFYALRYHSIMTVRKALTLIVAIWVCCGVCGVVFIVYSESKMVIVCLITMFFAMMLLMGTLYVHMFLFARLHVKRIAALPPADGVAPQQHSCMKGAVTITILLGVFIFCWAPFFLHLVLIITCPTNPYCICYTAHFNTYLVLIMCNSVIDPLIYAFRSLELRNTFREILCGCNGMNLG
T4 sequence (Q01727 whole entry): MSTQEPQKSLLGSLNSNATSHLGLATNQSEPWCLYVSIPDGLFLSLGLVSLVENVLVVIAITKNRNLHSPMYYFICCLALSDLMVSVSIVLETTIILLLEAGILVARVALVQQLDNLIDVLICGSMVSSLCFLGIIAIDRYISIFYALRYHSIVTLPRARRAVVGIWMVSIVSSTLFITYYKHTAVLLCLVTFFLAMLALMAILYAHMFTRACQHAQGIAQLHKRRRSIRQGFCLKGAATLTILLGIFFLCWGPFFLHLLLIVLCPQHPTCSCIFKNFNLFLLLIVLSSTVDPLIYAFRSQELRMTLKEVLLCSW
T1 sequence (P32245 whole entry): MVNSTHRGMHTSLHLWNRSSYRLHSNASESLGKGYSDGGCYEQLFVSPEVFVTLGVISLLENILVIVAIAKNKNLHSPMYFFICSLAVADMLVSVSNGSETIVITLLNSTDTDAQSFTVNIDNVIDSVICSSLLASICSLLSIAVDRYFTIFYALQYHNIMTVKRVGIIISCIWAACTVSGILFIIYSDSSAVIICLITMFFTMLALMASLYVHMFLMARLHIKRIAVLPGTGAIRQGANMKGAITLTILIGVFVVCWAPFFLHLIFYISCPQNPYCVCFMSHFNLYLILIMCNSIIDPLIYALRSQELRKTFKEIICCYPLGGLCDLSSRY
T2 sequence (P32245 whole entry): as above

Take `C[C@@H]1CN(C(=O)[C@H](N)Cc2ccc(Cl)cc2Cl)[C@@H](CCCNC(=N)N)CN1CCc1ccc2ccccc2c1` [Example 11, N-{3-[1-[2(R)-Amino-3-(2,4-dichloro-phenyl)-propionyl]-5(R)-methyl-4-(2 naphthalen-2-yl-ethyl)-piperazin-2(S)-yl]-propyl}-guanidine]: in assay [1], the “agonist/antagonist status as to MC4-R” value is “antagonist”. Moreover, the inhibition (as a rule, how much of the control response was suppressed) at 1 µM is 100% in [2], 78% in [3], 44% in assay [4] and 82% in [5]. In addition, the Ki (commonly the equilibrium dissociation constant of an inhibitor or competing ligand from its target) in [2] was found to be 2 nM; in assay [3] it was 362 nM; in [4] (read-out: Ki (nM) MC1-R), 1130 nM; in assay [5] (read-out: Ki (nM) MC3-R), 95 nM. In addition, in assay [6], the “24 hour change in food intake” value was -2.6 g. The same molecule gave a change in weight in assay [6] of -0.3 g.

For the molecule `N=C(N)NCCC[C@H]1CN(CCOc2ccc3ccccc3c2)CCN1C(=O)[C@@H](N)Cc1ccc(Cl)cc1Cl` [Example 18], the inhibition at 1 µM is 91% in assay [2], 40% in [3], 25% in assay [4] and 33% in assay [5].

For `Cc1cc(Cl)ccc1C[C@@H](N)C(=O)N1C[C@@H](C)N(CCc2ccc3ccccc3c2)C[C@@H]1CCCNC(=N)N` [Example 14, N-{3-[1-[2(R)-Amino-3-(4-chloro-2-methyl-phenyl)-propionyl]-5(R)-methyl-4-(2-naphthalen-2-yl-ethyl)-piperazin-2(S)-yl]-propyl}-guanidine], the “agonist/antagonist status as to MC4-R” value in [1] is “partial agonist”. In addition, the inhibition at 1 µM in [2] is 100%; in assay [3], 82%; in [4] it was 23%; in assay [5] it was 83%. For the same molecule, the Ki in assay [2] worked out at 1 nM; in assay [3], 219 nM; in assay [4] (read-out: Ki (nM) MC1-R) it was 1050 nM; in [5] (read-out: Ki (nM) MC3-R), 99 nM. Also, the “24 hour change in food intake” value in [6] is -5.5 g. In addition, in [6], the change in weight entry is given as “no change”.

For the molecule `NCCCC[C@H]1C(=O)N(CCc2ccc3ccccc3c2)CCN1C(=O)[C@@H](Cc1ccc(Cl)cc1Cl)NC(=O)/C=C/c1ccccc1` [Example 8], the “mean PE” value in assay [7] (setting [10]) was 0.13. Moreover, the “agonist/antagonist status as to MC5-R” value in assay [8] is on record as “agonist”. The “agonist/antagonist status as to MC1-R” value in [9] is “antagonist”. The “agonist/antagonist status as to MC4-R” value in [1] is listed as “antagonist”. The inhibition at 1 µM in [2] stood at 96%; in assay [3], 60%; in [4] it was 30%; in assay [5] it was 46%. Further, the Ki in [2] is 13 nM; in assay [3], 410 nM; in assay [4] (bound printed in μM in a Ki (nM) table, read-out: Ki MC1-R) it was over 1000 nM; in [5] (bound printed in μM in a Ki (nM) table, read-out: Ki MC3-R) it was over 1000 nM. Also, in assay [6], the “24 hour change in food intake” value was -10.1 g. This molecule returned a change in weight in assay [6] of -9.91 g.

As to `C[C@H]1CN(CCc2ccc3ccccc3c2)C[C@H](CCCNC(=N)N)N1C(=O)[C@H](N)Cc1ccc(Cl)cc1Cl` [Example 17 (S)-CH3, N-{3-[1-[2(R)-Amino-3-(2,4-dichloro-phenyl)-propionyl]-6(S)-methyl-4-(2-naphthalen-2-yl-ethyl)-piperazin-2(S)-yl]-propyl}-guanidine], the “agonist/antagonist status as to MC5-R” value in [8] is “inactive”. For the same molecule, the “agonist/antagonist status as to MC1-R” value in assay [9] is “agonist”. The “agonist/antagonist status as to MC4-R” value in [1] is listed as “agonist”. Besides, the inhibition at 1 µM in assay [2] was determined as 97%; in [3], 64%; in [4], 3%; in assay [5], 47%. Besides, the Ki in assay [2] came to 21 nM; in assay [3] it was 602 nM; in assay [4] (read-out: Ki (nM) MC1-R) it was 3180 nM; in [5] (read-out: Ki (nM) MC3-R), 551 nM.

`NCCCC[C@H]1C(=O)N(CCc2ccc3ccccc3c2)CCN1C(=O)[C@@H](Cc1ccc(Cl)cc1Cl)NC(=O)c1ccc(Oc2ccccc2)cc1` [Example 10]: the “mean PE” value in [7] (setting [10]) is given as 0.14; in assay [7] (50 μg/Kg, stated not statistically relevant), 0.25. Moreover, the “agonist/antagonist status as to MC5-R” value in assay [8] is recorded as “agonist”. Besides, the “agonist/antagonist status as to MC1-R” value in [9] is reported as “antagonist”. For the same molecule, the “agonist/antagonist status as to MC4-R” value in assay [1] was “antagonist”. Moreover, the inhibition at 1 µM was 99% in assay [2], 51% in assay [3] and 51% in assay [5]. Also, the Ki in assay [2] came out at 1 nM; in assay [3], 282 nM; in assay [4] (read-out: Ki (nM) MC1-R) it was 915 nM; in assay [5] (read-out: Ki (nM) MC3-R), 150 nM. Besides, the “24 hour change in food intake” value in assay [6] is -0.6 g. For the same molecule, the change in weight in [6] was -1.73 g.

In the case of `C[C@@H]1CN(CCc2ccc3ccccc3c2)C[C@H](CCCNC(=N)N)N1C(=O)[C@H](N)Cc1ccc(Cl)cc1Cl` [Example 17 (R)-CH3, N-{3-[1-[2(R)-Amino-3-(2,4-dichloro-phenyl)-propionyl]-6(R)-methyl-4-(2-naphthalen-2-yl-ethyl)-piperazin-2(S)-yl]-propyl}-guanidine], the inhibition at 1 µM in [2] came out at 95%; in assay [3], 36%; in assay [4], 14%; in [5] it was 32%.

For the molecule `NCCCC[C@H]1C(=O)N(CCc2ccc3ccccc3c2)CCN1C(=O)[C@@H](Cc1ccc(Cl)cc1Cl)NC(=O)[C@@H]1CC[C@H](c2ccccc2)N1` [Example 7], the inhibition at 1 µM in assay [2] was 92%; in assay [3], 51%; in assay [5] it was 18%. The “24 hour change in food intake” value in assay [6] is -7.77 g. This molecule also had a change in weight in [6] of -5.88 g.

In the case of `Cc1ccc(C[C@@H](N)C(=O)N2C[C@@H](C)N(CCc3ccc4ccccc4c3)C[C@@H]2CCCNC(=N)N)c(Cl)c1` [Example 13, N-{3-[1-[2(R)-Amino-3-(2-chloro-4-methyl-phenyl)-propionyl]-5(R)-methyl-4-(2-naphthalen-2-yl-ethyl)-piperazin-2(S)-yl]-propyl}-guanidine], in assay [1], the “agonist/antagonist status as to MC4-R” value is “antagonist”. In addition, the inhibition at 1 µM is 100% in assay [2], 72% in [3], 37% in assay [4] and 73% in [5]. Also, the inhibition constant (Ki) in assay [2] turned out to be 5 nM; in assay [3], 527 nM; in [4] (read-out: Ki (nM) MC1-R), 907 nM; in assay [5] (read-out: Ki (nM) MC3-R), 227 nM. In addition, in assay [6], the “24 hour change in food intake” value was -1.6 g. In addition, the change in weight in [6] was -3.9 g.
